Series [1] is described as follows: feeding trial in sheep fitted with rumen cannulae, rumen ammonia profile. Format: in vivo. As for the experimental part:
Samples consisted of prilled urea-cement matrix coated with a primer of the type oxychloride cement followed by 3 or 4 layers of rosin and calcium carbonate.
The experiment was carried out with sheep fitted with rumen cannulae. Sheep were fed on a control diet of 63% grass hay and 37% of unmollassed sugarbeet pulp. Control diet was then supplemented with 1.3% urea (or urea equivalent in the is form of a controlled-release product) and added directly into the rumen to avoid excess chewing, which is known to be more intense in sheep compared to cattle. Data from the feeding trials are described in Table 4 and FIG. 3.

The nature of series [2]: in vitro solubility assay of urea in water at 39° C. Format: physicochemical. To be noted: 50 mg urea in 50 ml water at 39° C. As to the method: The coating layers consisted of rosin only or a combination of primer and rosin. […] Fifty mg urea was incubated in 50 ml water at 39° C. Samples (1 ml) were taken after 1, 2, 4 and 7.5 h incubation. Urea concentration was estimated by spectrophotometry.

SMILES strings stand for the structures.

Consider `NC(N)=O` [Urea, urea], for which the Rumen ammonia in series [1] (0 h after feeding, diet supplemented with 1.3% urea or urea equivalent, added directly into the rumen) is recorded as 8.8 mg N/100 ml; in series [1] (1 h after feeding, 1.3% urea or urea equivalent into the rumen) it was 33.3 mg N/100 ml; in series [1] (2 h after feeding, 1.3% urea or urea equivalent into the rumen) it was 25.0 mg N/100 ml; in series [1] (4 h after feeding, 1.3% urea or urea equivalent into the rumen), 10.7 mg N/100 ml; in series [1] (8 h after feeding, 1.3% urea or urea equivalent into the rumen) it was 6.6 mg N/100 ml; in series [1] (12 h after feeding, 1.3% urea or urea equivalent into the rumen), 9.0 mg N/100 ml. Further, the “Urea solubilized (%)” value in series [2] (incubation time 1 h) came out at 98.9%; in series [2] (incubation time 2 h), 100.1%; in series [2] (incubation time 4 h), 99.3%; in series [2] (incubation time 7.5 h), 100.6%.

Values taken from patent US20040074272A1, “Controlled release urea product and method of preparing said product” (priority 2001, published 2004).
